Results taken from patent US20190060340A1, “NOVEL AMINOGLYCOSIDES AND USES THEREOF IN THE TREATMENT OF GENETIC DISORDERS” (Technion Research & Development Foundation Limited, priority 2007, published 2019).
In brackets after ≈: the same amount, converted by molar mass. Read-outs that look alike come from different tables or passages of the source.

Experiments:
[1] = system: Bacillus Subtilis ATCC 6633; assay: Antibacterial activity, MIC by double-microdilution method; type: cell-based; conditions: Bacillus subtilis
Description: (§1) In order to compare the observed aminoglycoside-induced stop codon read-through activity in mammalian cells to antibacterial activity thereof, Compounds 1-9 were further investigated as antibacterial agents against both Gram-negative (E. coli) and Gram-positive (Bacillus subtilis) bacteria, and the minimal inhibitory concentration (MIC) values were determined by using a microdilution assay with paromomycin and gentamicin as controls, and the results are presented in Table 18 hereinabove.
(§2) The bacterial strains used were Escherichia coli ATCC 25922, and Bacillus Subtilis ATCC 6633. […] All the experiments were performed in triplicates and analogous results were obtained in two to four different experiments.

[2] = system: Escherichia coli ATCC 25922; assay: as above; type: cell-based; conditions: for MIC: Escherichia coli
Description: as §1, §2

[3] = system: R3X nonsense mutation (a premature UGA C stop codon) of the PCDH15 gene; assay: In vitro suppression and translation, pDB650-R3X reporter plasmid in rabbit reticulocyte lysate coupled transcription/translation system; type: biochemical, human; conditions: for Conc. (concentration at which maximal suppression level was observed) / Supp. level (%), maximal in-vitro mutation suppression: R3X mutation; for Conc. (concentration at which maximal suppression level was observed): in vitro; for Supp. level (%), maximal in-vitro mutation suppression: 35-kDa product out of total protein; for Supp. level (%), maximal in-vitro mutation suppression / Trans. level (%): at Conc. of maximal suppression; for Trans. level (%): total protein relative to no compound
Description: Initially, Compounds 1-9 were tested for their ability to suppress this nonsense mutation in vitro, using a reporter construct carrying the R3X nonsense mutation (a premature UGA C stop codon) of the PCDH15 gene. Mutations in the PCDH15 gene which encodes protocardherin 15, cause type 1 Usher syndrome (USH1), which is characterized by profound prelingual hearing loss, vestibular areflexia, and prepubertal onset of retinitis pigmentosa (RP). Four different PCDH15 USH1-causing nonsense mutations, R3X, R245X, R643X, and R929X, have been reported in humans.
Suppression of nonsense mutations by Compounds 1-9 was tested in vitro using a reporter plasmid harboring the R3X mutation of the PCDH15 gene. To create this plasmid, the oligonucleotides 5′-[…]-3′ (SEQ ID NO: 1) and 5′-[…]-3′ (SEQ ID NO: 2) were annealed to each other and inserted into the BamHI and HindIII sites of plasmid pDB650 [6].
The resulting reporter plasmid pDB650-R3X contained a TGA C nonsense mutation between a 25-kDa polypeptide encoding open reading frame (ORF) and a 10-kDa polypeptide encoding ORF.
The plasmid was transcribed and translated in a rabbit reticulocyte lysate coupled transcription/translation system (Promega) in the presence of [^35S]-methionine, and the reaction products were separated by SDS-PAGE and quantified using Phosphorlmager analysis. The mutation suppression level was calculated as the relative proportion of the 35-kDa product out of total protein (the sum of 35-kDa and 25-kDa), and the translation level was calculated as the relative proportion of the total protein at each tested compound concentration out of the total protein without the presence of the tested compounds.
The tested concentrations of paromomycin were 0, 5, 10, 20, 30 and 40 μg/ml, tested concentrations of gentamicin were 0, 5, 10, 20, and 30 μg/ml, and the tested concentrations of Compounds 1-9 were in the range of 0-160 μg/ml.
Compound 37 was tested for its ability to suppress a nonsense mutation in-vitro, using a reporter construct carrying either R3X nonsense mutation (a premature UGA C stop codon) or R245X nonsense mutation (a premature UGA A stop codon) of the PCDH15 gene, using gentamicin, paromomycin and Compound 3 as standards and following the experimental procedures presented hereinabove.
For the rat-PGM-β-Gal in vitro readthrough system, the pDB series of reporter plasmids harbor the following elements under SP6 promoter control: an open reading frame (ORF) derived from the 5′ end of the rat PGM gene, which encodes a 25-kDa polypeptide; another small ORF, encoding the 10-kDa alpha complementation region of β-galactosidase, and terminated by tandem, in-frame stop codons (UAA UAG); located between the two ORFs is a DNA fragment derived from PCDH15 cDNA, including the tested stop mutation or the corresponding wild-type codon, and six upstream and downstream flanking codons (except for p.R3X constructs, in which there are only two upstream PCDH15-flanking codons). The fragments were created by annealing the following couples of complementary oligonucleotides:
The fragments were inserted into the BamHI and HindIII restriction sites of the pDB read-through construct. Reporter plasmids harboring each of the four nonsense mutations and the corresponding wt alleles were in vitro transcribed and translated using the TNT SP6 Coupled Reticulocyte lysate System (Promega) in the presence of [^35S]-methionine and increasing concentrations of aminoglycosides as described previously. […] The degree of suppression was calculated as the relative proportion of the 35-kDa product out of total reaction products (35-kDa and 25-kDa polypeptides). The results are averages of at least three independent experiments.

[4] = system: original p2Luc plasmid containing a TGA C nonsense mutation; assay: Dual luciferase in vitro transcription/translation assay; type: biochemical
Description: (§3) DNA fragments derived from the subsequent genes, including the tested stop mutation or the corresponding wild-type codon, and four upstream and downstream flanking codons (except for p.R3X constructs, in which there are only two upstream PCDH15-flanking codons) were cloned into p2Luc plasmid between renilla and firefly luciferase genes as described previously. The formed plasmids, as well as the original p2Luc plasmid containing a TGA C nonsense mutation, were transcribed and translated in vitro and the stop codon suppression efficiency was calculated as described previously.
(§4) For the dual luciferase in vitro transcription/translation assay, DNA fragments derived from PCDH15, CFTR, Dystrophin and IDUA cDNAs, including the tested stop mutation or the corresponding wild-type codon, and four upstream and downstream flanking codons (except for p.R3X constructs, in which there are only two upstream PCDH15-flanking codons) were created by annealing the couples of complementary oligonucleotides presented above.
(§5) Fragments were inserted into the SalI and SacI restriction sites of the p2Luc plasmid between renilla and firefly luciferase genes. The afforded plasmids, as well as the original p2Luc plasmid containing a TGA C nonsense mutation, were transcribed and translated using the TNT Reticulocyte Lysate Quick Coupled Transcription/Translation System (Promega™). Each transcription/translation reaction (10 μl, total volume) contained 8 μl TNT T7 Quick Master Mix, 0.2 μl methionine (1 mM), 0.8 μl DNA template (2 μg/μl), 1 μl of either water (blank) or 1 μl solution of increasing concentrations of the tested aminoglycosides in water. Luciferase activity was determined following 90 minutes incubation at 30° C. using the Dual Luciferase Reporter Assay System (Promega™). The total luminescence produced by each one of the proteins was measured separately using the FLx800 multidetection plate reader (Bio-Tek) and the stop codon suppression efficiency was calculated as described previously. The results are averages of at least three independent experiments.

[5] = system: R3X (PCDH15, Usher Syndrome); assay: as above; type: biochemical, human
Description: as §3, §4, §5

human fibroblast cells = conditions: cited from earlier work
[6] = available toxicity data on aminoglycosides; unit inferred; cited from earlier work
stop mutations = conditions: literature; cited from earlier work
[7] = ATCC6633, ATCC 6633, read-out: MIC B. Subtilis
[8] = ATCC25922, ATCC 25922, read-out: MIC E. coli

Row | MIC [1, 7] [µg/mL] | MIC [2, 8] [µg/mL] | Structure (SMILES) | Conc. (concentration at which maximal suppression level was observed) [3] [µg/mL] | Supp. level (%), maximal in-vitro mutation suppression [3] [%] | Trans. level (%) [3] [%] | LD50 [6] [mg/kg] | further results
1 | – | – | NC1CC(N)[C@@H](O[C@H]2OC(CO)[C@@H](O)C(O)C2N)C(O)C1O (stereo partly shown) [Compound 1, Paromamine] | 80 | 6.2 | 74 ± 15 | – | MIC ([1]; ATCC6633, read-out: MIC B. Subtilis): 128 µg/mL (≈ 396 µM); MIC ([2]; ATCC25922, read-out: MIC E. coli): 512 µg/mL (≈ 1580 µM); Supp. level (%), maximal in-vitro mutation suppression ([3]; listed as Paromamine): 6.2 ± 0.2%; Conc. (μM) at which maximum suppression level was achieved ([4]; dual luciferase in vitro system, all constructs of Table 21): 490 µM; Maximum in vitro suppression (%) UGAC ([4]; p2luc): 1.1 ± 0.1%; Maximum in vitro suppression (%) R3X [5]: 0.6 ± 0.1%
2 | 64 (≈ 141 µM) | 256 (≈ 562 µM) | NC1C[C@@H](N)[C@@H](O)[C@@H](O[C@@H]2O[C@H](CO)[C@H](O)C2O)[C@@H]1O[C@H]1OC(CO)[C@@H](O)[C@H](O)[C@@H]1N (stereo partly drawn) [Compound 2, (3S,4R,5S,6S)-5-amino-6-((1R,2R,3R,4R)-4,6-diamino-2-((2S,4R,5R)-3,4-dihydroxy-5-(hydroxymethyl)-tetrahydrofuran-2-yloxy)-3-hydroxycyclohexyloxy)-2-(hydroxymethyl)-tetrahydro-2H-pyran-3,4-diol] | 80 | 1.3 ± 0.1 | 100 ± 10 | – | –
3 | 96 (≈ 211 µM) | 256 (≈ 562 µM) | NC1C[C@@H](N)[C@@H](O[C@@H]2O[C@H](CO)[C@H](O)C2O)[C@@H](O)[C@@H]1O[C@H]1OC(CO)[C@@H](O)[C@H](O)[C@@H]1N (stereo partly drawn) [Compound 4, (3S,4R,5S,6S)-5-amino-6-((1R,2S,3R,4R)-4,6-diamino-3-((2R,4R,5R)-3,4-dihydroxy-5-(hydroxymethyl)-tetrahydrofuran-2-yloxy)-2-hydroxycyclohexyloxy)-2-(hydroxymethyl)-tetrahydro-2H-pyran-3,4-diol] | 80 | 1.5 ± 0.1 | 74 ± 7 | – | –
4 | 192 (≈ 422 µM) | > 512 | NC[C@H]1O[C@@H](OC2C(O)[C@H](O[C@H]3OC(CO)[C@@H](O)C(O)C3N)C(N)C[C@H]2N)C(O)C1O (stereo partly shown) [Compound 5] | 80 | 4.4 ± 2 | 75 ± 9 | – | –
5 | 48 (≈ 106 µM) | 192 (≈ 422 µM) | NC[C@H]1O[C@@H](OC2C(N)[C@@H](O[C@@H]3C(N)C[C@@H](N)C(O)C3O)OC(CO)[C@H]2O)C(O)C1O (stereo partly shown) [Compound 7] | 80 | 2.9 ± 2 | 98 ± 10 | – | –
6 | 48 (≈ 149 µM) | 192 (≈ 596 µM) | NC1C(N)[C@H](O)C(CO)O[C@@H]1O[C@@H]1C(N)C[C@@H](N)C(O)C1O (stereo partly shown) [Compound 8] | 80 | 2.0 ± 2 | 71 ± 7 | – | fold lower antimicrobial activity as compared to paromomycin ([2]; from Table 18, E. coli and B. subtilis): 6-16 fold
7 | 48 (≈ 72.9 µM) | 96 (≈ 146 µM) | NC1C(OCOC2C(N)[C@H](O[C@H]3C(N)C[C@H](N)C(O)C3O)OC(CO)[C@@H]2O)[C@H](O)C(CO)O[C@@H]1O[C@@H]1C(N)C[C@@H](N)C(O)C1O (stereo partly shown) [Compound 9] | 80 | <1 | 22 ± 2 | – | –
8 | – | – | CN[C@@H]1[C@@H](O)[C@@H](O[C@@H]2[C@@H](O)[C@H](O[C@H]3O[C@H]([C@@H](C)O)[C@@H](O)[C@H](O)[C@H]3N)[C@@H](N)C[C@H]2N)OC[C@]1(C)O [Compound G-418, G-418] | – | – | – | – | LD50 against human fibroblast cells (human fibroblast cells; ref [49]): 0.04 mg/mL
9 | – | – | NCCC(O)C(=O)NC1CC(N)C(OC2OC(CN)C(O)C(O)C2N)C(O)C1O (stereo not shown) [N1-AHB-neamine] | – | – | – | 260 | –
10 | – | – | NCC[C@H](O)C(=O)N[C@@H]1C[C@H](N)[C@@H](O[C@H]2O[C@H](CN)[C@@H](O)[C@H](O)[C@H]2O)[C@H](O)[C@H]1O[C@H]1O[C@H](CO)[C@@H](O)[C@H](N)[C@H]1O [amikacin] | – | – | – | 300 | –
11 | – | – | NC[C@@H]1O[C@@H](O[C@H]2[C@H](O)[C@@H](O[C@H]3O[C@H](CO)[C@@H](O)[C@H](N)[C@H]3O)[C@H](N)C[C@@H]2N)[C@@H](O)[C@H](O)[C@H]1O [kanamycin A] | – | – | – | 280 | stop mutations suppression / read-through activity (stop mutations): does not show any read-through activity
12 | – | – | NC[C@H]1O[C@H](O[C@H]2[C@H](O)[C@@H](O[C@H]3O[C@H](CO)[C@@H](O)[C@H](N)[C@H]3O)[C@H](N)C[C@@H]2N)[C@H](N)[C@@H](O)[C@@H]1O [kanamycin B] | – | – | – | 132 | –
13 | – | – | N[C@@H]1[C@@H](O)[C@@H](O[C@@H]2[C@@H](O)[C@H](O[C@H]3O[C@H](CO)[C@@H](O)[C@H](O)[C@H]3N)[C@@H](N)C[C@H]2N)O[C@H](CO)[C@H]1O [kanamycin C] | – | – | – | 225 | –
14 | – | – | NC[C@H]1O[C@H](O[C@H]2[C@H](O)[C@@H](O[C@H]3O[C@H](CO)[C@@H](O)[C@H](N)[C@H]3O)[C@H](N)C[C@@H]2N)[C@H](O)[C@@H](O)[C@@H]1O [kanamycin] | – | – | – | – | LD50 against human fibroblast cells (human fibroblast cells): 2.5 to 5.0 mg/mL
15 | – | – | NC[C@H]1O[C@H](O[C@H]2[C@H](O)[C@@H](O)[C@H](N)C[C@@H]2N)[C@H](N)[C@@H](O)[C@@H]1O [neamine] | – | – | – | 125 | –
